Experimental data: PubChem BioAssay AID2060603 (Molecular Pharmacology Branch, DTP, NCI, 2025)
Several values for one entry are separate records, joined by “and”; a condition that tells them apart may be missing. Identical values can stand only once.

Tested on: 422866-222-R5-J1-PDC spheroid viability
Assay: Anticancer human tumor 422866-222-R5-J1-PDC patient-derived pancreatic adenocarcinoma cell line growth inhibition [CLK]
Details: spheroids with HUVEC and MSC; for viability, T/C: stronger effect = lower value
Procedure, shortened: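 Multi-cell-type spheroids combined patient-derived tumor cells with HUVEC endothelial cells and human mesenchymal stem cells. Paired agents were dosed in half-log steps down from about clinical Cmax, or from 10 microM where Cmax was unknown.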

[1] = curve of first compound, second compound 0.0316 µM
[2] = curve of first compound, second compound 0.1 µM
[3] = curve of first compound, second compound 0.316 µM
[4] = curve of first compound, second compound 1 µM
[5] = curve of first compound, second compound 3.16 µM
[6] = curve of first compound, second compound 10 µM
[7] = second compound 0.0316 µM, first compound 0.0316 µM
[8] = second compound 0.0316 µM, first compound 0.1 µM
[9] = second compound 0.0316 µM, first compound 0.316 µM
[10] = second compound 0.0316 µM, first compound 1 µM
[11] = second compound 0.0316 µM, first compound 3.16 µM
[12] = second compound 0.0316 µM, first compound 10 µM
[13] = second compound 0.1 µM, first compound 0.0316 µM
[14] = second compound 0.1 µM, first compound 0.1 µM
[15] = second compound 0.1 µM, first compound 0.316 µM
[16] = second compound 0.1 µM, first compound 1 µM
[17] = second compound 0.1 µM, first compound 3.16 µM
[18] = second compound 0.1 µM, first compound 10 µM
[19] = second compound 0.316 µM, first compound 0.0316 µM
[20] = second compound 0.316 µM, first compound 0.1 µM
[21] = second compound 0.316 µM, first compound 0.316 µM
[22] = second compound 0.316 µM, first compound 1 µM
[23] = second compound 0.316 µM, first compound 3.16 µM
[24] = second compound 0.316 µM, first compound 10 µM
[25] = second compound 1 µM, first compound 0.0316 µM
[26] = second compound 1 µM, first compound 0.1 µM
[27] = second compound 1 µM, first compound 0.316 µM
[28] = second compound 1 µM, first compound 1 µM
[29] = second compound 1 µM, first compound 3.16 µM
[30] = second compound 1 µM, first compound 10 µM
[31] = second compound 3.16 µM, first compound 0.0316 µM
[32] = second compound 3.16 µM, first compound 0.1 µM
[33] = second compound 3.16 µM, first compound 0.316 µM
[34] = second compound 3.16 µM, first compound 1 µM
[35] = second compound 3.16 µM, first compound 3.16 µM
[36] = second compound 3.16 µM, first compound 10 µM
[37] = second compound 10 µM, first compound 0.0316 µM
[38] = second compound 10 µM, first compound 0.1 µM
[39] = second compound 10 µM, first compound 0.316 µM
[40] = second compound 10 µM, first compound 1 µM
[41] = second compound 10 µM, first compound 3.16 µM
[42] = second compound 10 µM, first compound 10 µM
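Also: spheroids exposed to agents for seven days before readout.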

CC1(C)CCC(CN2CCN(c3ccc(C(=O)NS(=O)(=O)c4ccc(NCC5CCOCC5)c([N+](=O)[O-])c4)c(Oc4cnc5[nH]ccc5c4)c3)CC2)=C(c2ccc(Cl)cc2)C1 + CNC(=O)c1ccc(Nc2nc(OC3CCCC3)c3c(-c4ccc5nc(C)oc5c4)c[nH]c3n2)c(OC)c1
IC50 [1]: > 10000 nM | IC50 [2]: > 10000 nM | IC50 [3]: > 10000 nM | IC50 [4]: > 10000 nM | IC50 [5]: > 10000 nM | IC50 [6]: > 10000 nM | viability, T/C [7]: 115% | viability, T/C [8]: 87.5% | viability, T/C [9]: 93.9% | viability, T/C [10]: 119% | viability, T/C [11]: 131% | viability, T/C [12]: 93.4% | viability, T/C [13]: 114% | viability, T/C [14]: 90% | viability, T/C [15]: 98.7% | viability, T/C [16]: 100% | viability, T/C [17]: 114% | viability, T/C [18]: 81.3% | viability, T/C [19]: 84.6% | viability, T/C [20]: 71.9% | viability, T/C [21]: 70.1% | viability, T/C [22]: 75.7% | viability, T/C [23]: 86.6% | viability, T/C [24]: 78% | viability, T/C [25]: 75.3% | viability, T/C [26]: 76.4% | viability, T/C [27]: 76% | viability, T/C [28]: 70.7% | viability, T/C [29]: 66% | viability, T/C [30]: 57.1% | viability, T/C [31]: 65.2% | viability, T/C [32]: 76.6% | viability, T/C [33]: 66.4% | viability, T/C [34]: 67.7% | viability, T/C [35]: 76.8% | viability, T/C [36]: 79.5% | viability, T/C [37]: 60.3% | viability, T/C [38]: 62.4% | viability, T/C [39]: 61% | viability, T/C [40]: 56.6% | viability, T/C [41]: 78.1% | viability, T/C [42]: 84.3%

COc1c(OCCCN2CCOCC2)ccc2c3n(c(=NC(=O)c4cnc(N)nc4)nc12)CCN3
viability, T/C (compound 0.00316 µM): 78.6% and 87.6% | viability, T/C (compound 0.01 µM): 57.4% and 58.9% | viability, T/C (compound 0.0316 µM): 37.6% and 32.8% | viability, T/C (compound 0.1 µM): 33.2% and 29.1% | viability, T/C (compound 0.316 µM): 29.7% and 26% | viability, T/C (compound 1 µM): 32.4% and 33.2% | IC50 (curve of compound): 15.4 nM and 14.8 nM

CCCS(=O)(=O)Nc1ccc(F)c(C(=O)c2c[nH]c3ncc(-c4ccc(Cl)cc4)cc23)c1F + CN1CCN(c2cc(C(=O)Nc3cc4cc(-c5cnn(C)c5)ccc4cn3)ccn2)CC1
IC50 [1]: > 10000 nM | IC50 [2]: > 10000 nM | IC50 [3]: > 10000 nM | IC50 [4]: < 31.6 nM | IC50 [5]: < 31.6 nM | IC50 [6]: < 31.6 nM | viability, T/C [7]: 111% | viability, T/C [8]: 113% | viability, T/C [9]: 136% | viability, T/C [10]: 161% | viability, T/C [11]: 179% | viability, T/C [12]: 150% | viability, T/C [13]: 108% | viability, T/C [14]: 124% | viability, T/C [15]: 137% | viability, T/C [16]: 134% | viability, T/C [17]: 168% | viability, T/C [18]: 138% | viability, T/C [19]: 95.9% | viability, T/C [20]: 102% | viability, T/C [21]: 98% | viability, T/C [22]: 109% | viability, T/C [23]: 133% | viability, T/C [24]: 99.5% | viability, T/C [25]: 31.4% | viability, T/C [26]: 30.9% | viability, T/C [27]: 32% | viability, T/C [28]: 27.8% | viability, T/C [29]: 31.4% | viability, T/C [30]: 23.5% | viability, T/C [31]: 8.19% | viability, T/C [32]: 9.62% | viability, T/C [33]: 11.2% | viability, T/C [34]: 12.2% | viability, T/C [35]: 16.5% | viability, T/C [36]: 16.1% | viability, T/C [37]: 1.72% | viability, T/C [38]: 2.24% | viability, T/C [39]: 2.24% | viability, T/C [40]: 2.75% | viability, T/C [41]: 2.94% | viability, T/C [42]: 0.92%

Nc1ccn(C2OC(CO)C(O)C2(F)F)c(=O)n1 (stereo not given) + CNC(=O)c1ccc(Nc2nc(OC3CCCC3)c3c(-c4ccc5nc(C)oc5c4)c[nH]c3n2)c(OC)c1
IC50 [1]: 939 nM | IC50 [2]: 125 nM | IC50 [3]: 86 nM | IC50 [4]: 119 nM | IC50 [5]: 158 nM | IC50 [6]: 72.4 nM | viability, T/C [7]: 61.4% | viability, T/C [8]: 57.8% | viability, T/C [9]: 53.7% | viability, T/C [10]: 50% | viability, T/C [11]: 45.3% | viability, T/C [12]: 39.6% | viability, T/C [13]: 90.4% | viability, T/C [14]: 50.8% | viability, T/C [15]: 44.9% | viability, T/C [16]: 46.1% | viability, T/C [17]: 36.3% | viability, T/C [18]: 42.1% | viability, T/C [19]: 73.8% | viability, T/C [20]: 46.7% | viability, T/C [21]: 37.8% | viability, T/C [22]: 40.6% | viability, T/C [23]: 36% | viability, T/C [24]: 37.5% | viability, T/C [25]: 69.8% | viability, T/C [26]: 51.4% | viability, T/C [27]: 42.8% | viability, T/C [28]: 32.2% | viability, T/C [29]: 39.2% | viability, T/C [30]: 43.8% | viability, T/C [31]: 55.2% | viability, T/C [32]: 60.7% | viability, T/C [33]: 42.1% | viability, T/C [34]: 40.4% | viability, T/C [35]: 33.7% | viability, T/C [36]: 34.1% | viability, T/C [37]: 67.8% | viability, T/C [38]: 42.9% | viability, T/C [39]: 40.3% | viability, T/C [40]: 33.7% | viability, T/C [41]: 39.2% | viability, T/C [42]: 40.6%

CC(=O)O[C@H]1C(=O)[C@@]2(C)[C@H]([C@H](OC(=O)c3ccccc3)[C@]3(O)C[C@H](OC(=O)[C@H](O)[C@@H](NC(=O)c4ccccc4)c4ccccc4)C(C)=C1C3(C)C)[C@]1(OC(C)=O)CO[C@@H]1C[C@@H]2O
viability, T/C (compound 0.0316 µM): 68% and 69.8% | viability, T/C (compound 0.1 µM): 69.3% and 72.6% | viability, T/C (compound 0.316 µM): 63.8% and 66.3% | viability, T/C (compound 1 µM): 68.3% and 75.5% | viability, T/C (compound 3.16 µM): 72.2% and 76% | viability, T/C (compound 10 µM): 85.7% and 81.6% | IC50 (curve of compound): > 10000 nM
